Experimental data published in patent US10100049B2, “JAK kinase inhibitor compounds for treatment of respiratory disease” (THERAVANCE BIOPHARMA R&D IP, LLC, priority 2015, dated 2018).

Key:
[1] = tested on: IL-13 induced pSTAT6 in lung tissue; test: Murine model of IL-13 induced pSTAT6 induction in lung tissue; format: in vivo; conditions: mouse lung; for factor by which lung concentration was smaller than that of the corresponding compound of the invention: pharmacodynamic assay
Description: Il-13 is an important cytokine underlying the pathophysiology of asthma (Kudlacz et al. Eur. J. Pharmacol, 2008, 582, 154-161). IL-13 binds to cell surface receptors activating members of the Janus family of kinases (JAK) which then phosphorylate STAT6 and subsequently activates further transcription pathways. In the described model, a dose of IL-13 was delivered locally into the lungs of mice to induce the phosphorylation of STAT6 (pSTAT6) which is then measured as the endpoint.
Adult balb/c mice from Harlan were used in the assay. On the day of study, animals were lightly anesthetized with isoflurane and administered either vehicle or test compound (0.5 mg/mL, 50 μL total volume over several breaths) via oral aspiration. Animals were placed in lateral recumbency post dose and monitored for full recovery from anesthesia before being returned to their home cage. Four hours later, animals were once again briefly anesthetized and challenged with either vehicle or IL-13 (0.03 μg total dose delivered, 50 μL total volume) via oral aspiration before being monitored for recovery from anesthesia and returned to their home cage. One hour after vehicle or IL-13 administration, lungs were collected for both pSTAT6 detection using an anti-pSTAT6 ELISA (rabbit mAb capture/coating antibody; mouse mAb detection/report antibody: anti-pSTAT6-pY641; secondary antibody: anti-mouse IgG-HRP) and analyzed for total drug concentration as described above in Assay 4.
Selected compounds of the invention were tested in the assay. Activity in the model is evidenced by a decrease in the level of pSTAT6 present in the lungs of treated animals at 5 hours compared to the vehicle treated, IL-13 challenged control animals. The difference between the control animals which were vehicle-treated, IL-13 challenged and the control animals which were vehicle-treated, vehicle challenged dictated the 0% and 100% inhibitory effect, respectively, in any given experiment.

[2] = tested on: IL-13 induced STAT6 phosphorylation in BEAS-2B human lung epithelial cells; test: AlphaScreen cellular potency assay, IL-13 induced STAT6 phosphorylation in BEAS-2B cells; format: cell-based
Description: The AlphaScreen JAM cellular potency assay was carried out by measuring interleukin-13 (IL-13, R&D Systems) induced STAT6 phosphorylation in BEAS-2B human lung epithelial cells (ATCC). The anti-STAT6 antibody (Cell Signaling Technologies) was conjugated to AlphaScreen acceptor beads (Perkin Elmer), while the anti-pSTAT6 (pTyr641) antibody (Cell Signaling Technologies) was biotinylated using EZ-Link Sulfo-NHS-Biotin (Thermo Scientific).
BEAS-2B cells were grown at 37° C. in a 5% CO2 humidified incubator in 50% DMEM/50% F-12 medium (Life Technologies) supplemented with 10% FBS (Hyclone), 100 U/mL penicillin, 100 μg/mL streptomycin (Life Technologies), and 2 mM GlutaMAX (Life Technologies). On day 1 of the assay, cells were seeded at a 7,500 cells/well density in white poly-D-lysine-coated 384-well plates (Corning) with 25 μL medium, and were allowed to adhere overnight in the incubator. On day 2 of the assay, the medium was removed and replaced with 12 μL of assay buffer (Hank's Balanced Salt Solution/HBSS, 25 mM HEPES, and 1 mg/ml bovine serum albumin/BSA) containing dose-responses of test compounds. Compounds were serially diluted in DMSO and then diluted another 1000-fold in media to bring the final DMSO concentration to 0.1%. Cells were incubated with test compounds at 37° C. for 1 h, and followed by the addition of 12 μl of pre-warmed IL-13 (80 ng/ml in assay buffer) for stimulation. After incubating at 37° C. for 30 min, the assay buffer (containing compound and IL-13) was removed, and 10 μl of cell lysis buffer (25 mM HEPES, 0.1% SDS, 1% NP-40, 5 mM MgCl2, 1.3 mM EDTA, 1 mM EGTA, and supplement with Complete Ultra mini protease inhibitors and PhosSTOP from Roche Diagnostics). The plates were shaken at ambient temperature for 30 min before the addition of detection reagents. A mixture of biotin-anti-pSTAT6 and anti-STAT6 conjugated acceptor beads was added first and incubated at ambient temperature for 2 h, followed by the addition of streptavidin conjugated donor beads (Perkin Elmer). After a minimum of 2 h incubation, the assay plates were read on the EnVision plate reader.
Results were expressed as the negative logarithm of the IC50 value, pIC50.

JAK1 = JAK1 (Homo sapiens (Human), UniProt P23458); test: LanthaScreen JAK biochemical assay (JAK1); conditions: for fold less potent than the corresponding compound of the invention in the enzyme assay: JAK1 enzyme assay
Sequence of JAK1 (P23458 whole entry): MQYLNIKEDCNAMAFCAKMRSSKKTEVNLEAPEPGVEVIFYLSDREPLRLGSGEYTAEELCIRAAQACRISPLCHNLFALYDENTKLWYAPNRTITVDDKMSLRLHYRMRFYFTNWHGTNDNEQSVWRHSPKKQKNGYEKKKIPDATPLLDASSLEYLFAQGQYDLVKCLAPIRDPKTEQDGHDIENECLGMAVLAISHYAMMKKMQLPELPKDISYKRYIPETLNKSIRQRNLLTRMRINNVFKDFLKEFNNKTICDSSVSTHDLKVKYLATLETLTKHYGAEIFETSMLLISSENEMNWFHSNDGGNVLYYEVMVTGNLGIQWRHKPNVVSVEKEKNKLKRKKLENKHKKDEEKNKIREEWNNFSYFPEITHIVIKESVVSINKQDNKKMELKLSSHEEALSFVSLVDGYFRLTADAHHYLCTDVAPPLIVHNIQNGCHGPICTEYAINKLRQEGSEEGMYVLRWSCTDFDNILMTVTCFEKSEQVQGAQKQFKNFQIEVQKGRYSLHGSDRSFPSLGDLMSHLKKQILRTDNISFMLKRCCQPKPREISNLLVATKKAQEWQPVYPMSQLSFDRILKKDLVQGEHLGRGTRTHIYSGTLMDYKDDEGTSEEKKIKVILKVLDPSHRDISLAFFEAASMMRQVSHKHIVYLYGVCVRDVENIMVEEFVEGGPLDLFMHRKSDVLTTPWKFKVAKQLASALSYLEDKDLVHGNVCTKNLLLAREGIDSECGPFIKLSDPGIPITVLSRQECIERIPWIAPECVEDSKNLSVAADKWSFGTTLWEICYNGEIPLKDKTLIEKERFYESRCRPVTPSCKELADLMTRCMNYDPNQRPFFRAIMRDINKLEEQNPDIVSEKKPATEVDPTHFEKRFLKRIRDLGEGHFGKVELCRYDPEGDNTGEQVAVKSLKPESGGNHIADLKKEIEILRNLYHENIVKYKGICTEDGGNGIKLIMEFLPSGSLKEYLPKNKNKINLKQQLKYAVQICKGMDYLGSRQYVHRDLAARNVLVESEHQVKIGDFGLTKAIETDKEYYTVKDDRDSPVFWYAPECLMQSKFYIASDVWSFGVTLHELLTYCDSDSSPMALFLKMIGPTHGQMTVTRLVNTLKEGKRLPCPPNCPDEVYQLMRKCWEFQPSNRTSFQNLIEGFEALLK

JAK2 = JAK2 (Homo sapiens (Human), UniProt O60674)
Sequence of JAK2 (O60674 whole entry): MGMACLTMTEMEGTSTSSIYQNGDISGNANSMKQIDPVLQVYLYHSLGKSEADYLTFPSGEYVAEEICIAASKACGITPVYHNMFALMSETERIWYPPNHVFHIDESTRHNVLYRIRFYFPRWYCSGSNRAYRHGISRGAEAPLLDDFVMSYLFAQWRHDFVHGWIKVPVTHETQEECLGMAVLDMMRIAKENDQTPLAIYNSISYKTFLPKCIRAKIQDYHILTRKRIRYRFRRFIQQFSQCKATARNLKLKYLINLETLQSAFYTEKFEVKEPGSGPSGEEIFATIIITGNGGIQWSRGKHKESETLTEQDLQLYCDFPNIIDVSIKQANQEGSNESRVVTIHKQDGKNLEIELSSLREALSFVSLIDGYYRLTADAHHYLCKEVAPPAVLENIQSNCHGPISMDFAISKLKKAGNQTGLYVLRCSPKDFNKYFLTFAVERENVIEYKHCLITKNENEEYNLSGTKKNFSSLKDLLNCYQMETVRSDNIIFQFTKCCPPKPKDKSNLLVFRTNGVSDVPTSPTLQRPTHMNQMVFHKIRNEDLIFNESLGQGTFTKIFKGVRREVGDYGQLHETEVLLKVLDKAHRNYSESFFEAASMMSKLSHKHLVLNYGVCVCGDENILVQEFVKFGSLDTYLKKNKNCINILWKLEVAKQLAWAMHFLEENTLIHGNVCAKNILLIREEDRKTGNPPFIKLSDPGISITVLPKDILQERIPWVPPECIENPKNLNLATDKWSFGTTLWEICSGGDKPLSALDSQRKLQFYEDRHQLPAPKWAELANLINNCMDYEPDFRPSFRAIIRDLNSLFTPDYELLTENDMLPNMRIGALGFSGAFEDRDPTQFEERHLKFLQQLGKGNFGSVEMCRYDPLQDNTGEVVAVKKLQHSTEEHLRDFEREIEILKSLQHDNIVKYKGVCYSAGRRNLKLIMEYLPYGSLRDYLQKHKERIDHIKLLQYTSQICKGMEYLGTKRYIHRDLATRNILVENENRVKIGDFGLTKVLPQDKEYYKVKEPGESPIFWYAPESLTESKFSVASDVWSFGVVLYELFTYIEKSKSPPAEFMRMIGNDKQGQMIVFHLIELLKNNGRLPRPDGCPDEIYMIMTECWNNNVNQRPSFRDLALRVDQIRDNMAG

Tyk2 = Tyk2 (Homo sapiens (Human), UniProt P29597); test: LanthaScreen JAK biochemical assay (Tyk2); conditions: read-out: Tyk 2 (PKi); note: ATP at Km 10 µM
Sequence of Tyk2 (P29597 whole entry): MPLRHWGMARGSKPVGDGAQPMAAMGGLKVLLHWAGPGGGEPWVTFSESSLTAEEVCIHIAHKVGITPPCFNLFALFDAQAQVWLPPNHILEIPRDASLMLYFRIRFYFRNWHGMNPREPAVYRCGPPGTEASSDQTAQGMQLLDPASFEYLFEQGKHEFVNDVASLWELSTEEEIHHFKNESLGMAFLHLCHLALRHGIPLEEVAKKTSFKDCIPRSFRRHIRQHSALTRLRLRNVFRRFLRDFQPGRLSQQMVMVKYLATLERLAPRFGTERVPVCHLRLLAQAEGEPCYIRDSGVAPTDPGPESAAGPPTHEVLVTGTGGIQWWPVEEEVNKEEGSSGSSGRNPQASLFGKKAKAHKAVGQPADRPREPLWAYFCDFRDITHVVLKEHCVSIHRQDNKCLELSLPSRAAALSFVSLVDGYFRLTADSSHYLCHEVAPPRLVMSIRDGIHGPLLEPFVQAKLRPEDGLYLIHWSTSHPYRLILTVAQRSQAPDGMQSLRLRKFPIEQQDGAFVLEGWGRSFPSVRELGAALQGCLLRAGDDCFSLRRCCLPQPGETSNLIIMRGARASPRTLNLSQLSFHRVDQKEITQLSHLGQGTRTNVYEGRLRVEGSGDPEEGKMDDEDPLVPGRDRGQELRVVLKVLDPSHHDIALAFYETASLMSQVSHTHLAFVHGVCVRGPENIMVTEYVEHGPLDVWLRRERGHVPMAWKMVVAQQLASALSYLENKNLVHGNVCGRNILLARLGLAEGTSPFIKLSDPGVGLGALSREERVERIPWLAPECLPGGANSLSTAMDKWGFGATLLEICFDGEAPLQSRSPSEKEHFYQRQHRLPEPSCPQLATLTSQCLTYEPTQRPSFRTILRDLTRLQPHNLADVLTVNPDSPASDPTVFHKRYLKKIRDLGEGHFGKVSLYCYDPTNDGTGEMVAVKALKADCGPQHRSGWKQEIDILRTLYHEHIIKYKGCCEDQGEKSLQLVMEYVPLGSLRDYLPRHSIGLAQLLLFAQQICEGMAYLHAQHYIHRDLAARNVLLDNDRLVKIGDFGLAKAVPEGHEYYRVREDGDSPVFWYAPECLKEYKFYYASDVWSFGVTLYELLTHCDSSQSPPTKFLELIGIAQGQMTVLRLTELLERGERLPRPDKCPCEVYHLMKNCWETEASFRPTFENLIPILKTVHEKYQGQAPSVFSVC

JAK3 = JAK3 (Homo sapiens (Human), UniProt P52333); test: LanthaScreen JAK biochemical assay (JAK3); conditions: ATP at Km 1.6 μM; read-out: JAK 3 (pKi) (converted)
Sequence of JAK3 (P52333 whole entry): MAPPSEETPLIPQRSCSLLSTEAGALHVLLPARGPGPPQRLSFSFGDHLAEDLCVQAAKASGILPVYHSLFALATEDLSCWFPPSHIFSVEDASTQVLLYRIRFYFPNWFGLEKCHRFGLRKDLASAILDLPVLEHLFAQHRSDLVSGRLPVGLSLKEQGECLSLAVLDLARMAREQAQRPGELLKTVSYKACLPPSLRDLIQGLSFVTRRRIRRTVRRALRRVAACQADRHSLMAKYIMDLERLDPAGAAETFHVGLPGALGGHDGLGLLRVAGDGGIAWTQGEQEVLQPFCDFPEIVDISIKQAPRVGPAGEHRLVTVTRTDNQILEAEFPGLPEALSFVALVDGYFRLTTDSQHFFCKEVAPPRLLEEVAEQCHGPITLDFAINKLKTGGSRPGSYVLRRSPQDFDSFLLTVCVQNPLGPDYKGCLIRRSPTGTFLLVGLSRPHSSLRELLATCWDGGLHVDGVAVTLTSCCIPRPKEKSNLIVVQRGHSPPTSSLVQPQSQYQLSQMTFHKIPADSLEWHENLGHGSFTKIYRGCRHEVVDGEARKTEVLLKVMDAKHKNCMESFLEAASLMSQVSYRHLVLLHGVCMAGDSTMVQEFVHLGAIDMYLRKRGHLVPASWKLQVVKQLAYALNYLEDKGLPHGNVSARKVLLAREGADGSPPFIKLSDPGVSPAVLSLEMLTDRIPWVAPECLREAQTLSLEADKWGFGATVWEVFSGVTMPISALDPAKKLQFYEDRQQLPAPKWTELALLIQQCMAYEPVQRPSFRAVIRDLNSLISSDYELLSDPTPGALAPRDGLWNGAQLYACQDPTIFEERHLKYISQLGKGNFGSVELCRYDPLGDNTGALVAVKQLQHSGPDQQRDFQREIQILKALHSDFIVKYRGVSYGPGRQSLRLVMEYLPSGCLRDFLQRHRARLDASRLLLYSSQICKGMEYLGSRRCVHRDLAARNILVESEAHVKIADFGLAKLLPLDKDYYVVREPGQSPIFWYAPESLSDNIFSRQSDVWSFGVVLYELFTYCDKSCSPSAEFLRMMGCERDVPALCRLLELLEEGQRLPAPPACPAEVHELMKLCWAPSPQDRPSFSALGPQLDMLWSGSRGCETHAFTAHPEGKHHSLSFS

[3] = tested on: Alternaria-induced BALF eosinophils; test: Murine model of Alternaria alternata-induced eosinophilic inflammation of the lung; format: in vivo; conditions: mouse; maximum statistically significant inhibition; 0.1-1.0 mg/mL, 50 μL oropharyngeal aspiration; BALF 48 h after alternaria
Description: Airway eosinophilia is a hallmark of human asthma. Alternaria alternata is a fungal aeroallergen that can exacerbate asthma in humans and induces eosinophilic inflammation in the lungs of mice (Havaux et al. Clin Exp Immunol. 2005, 139(2):179-88).
Seven- to nine-week old male C57 mice from Taconic were used in the study. On the day of study, animals were lightly anesthetized with isoflurane and administered either vehicle or test compound (0.1-1.0 mg/mL, 50 μL total volume over several breaths) via oropharyngeal aspiration. Animals were placed in lateral recumbency post dose and monitored for full recovery from anesthesia before being returned to their home cage. One hour later, animals were once again briefly anesthetized and challenged with either vehicle or alternaria extract (200 ug total extract delivered, 50 μL total volume) via oropharyngeal aspiration before being monitored for recovery from anesthesia and returned to their home cage. Forty-eight hours after alternaria administration, bronchoalveolar lavage fluid (BALF) was collected and eosinophils were counted in the BALF using the Advia 120 Hematology System (Siemens).
Selected compounds of the invention were tested in this alternaria assay. Activity in the model is evidenced by a decrease in the level of eosinophils present in the BALF of treated animals at forty-eight hours compared to the vehicle treated, alternaria challenged control animals. Data are expressed as percent inhibition of the vehicle treated, alternaria challenged BALF eosinophils response. To calculate percent inhibition, the number of BALF eosinophils for each condition is converted to percent of the average vehicle treated, alternaria challenged BALF eosinophils and subtracted from one-hundred percent.

[4] = Pharmacokinetics in plasma and lung in mouse; format: in vivo; conditions: oral aspiration 0.2 mg/mL 50 uL, lung AUC (μg hr/g) / plasma AUC (μg hr/mL)
Description: Plasma and lung levels of test compounds and ratios thereof were determined in the following manner. BALB/c mice from Charles River Laboratories were used in the assay. Test compounds were individually formulated in 20% propylene glycol in pH 4 citrate buffer at a concentration of 0.2 mg/mL and 50 uL of the dosing solution was introduced into the trachea of a mouse by oral aspiration. At various time points (typically 0.167, 2, 6, 24 hr) post dosing, blood samples were removed via cardiac puncture and intact lungs were excised from the mice. Blood samples were centrifuged (Eppendorf centrifuge, 5804R) for 4 minutes at approximately 12,000 rpm at 4° C. to collect plasma. Lungs were padded dry, weighed, and homogenized at a dilution of 1:3 in sterile water. Plasma and lung levels of test compound were determined by LC-MS analysis against analytical standards constructed into a standard curve in the test matrix. A lung to plasma ratio was determined as the ratio of the lung AUC in μg hr/g to the plasma AUC in μg hr/mL, where AUC is conventionally defined as the area under the curve of test compound concentration vs. time.

[5] = Dynamic moisture sorption assessment; format: physicochemical
Description: Dynamic moisture sorption (DMS) measurement was performed using a VTI atmospheric microbalance, SGA-100 system (VTI Corp., Hialeah, Fla. 33016). A weighed sample was used and the humidity was lowest possible value (close to 0% RH) at the start of the analysis. The DMS analysis consisted of an initial drying step (˜0% RH) for 120 minutes, followed by two cycles of sorption and desorption with a scan rate of 5% RH/step over the humidity range of 5% RH to 90% RH. The DMS run was performed isothermally at 25° C.

**Q.** Which “factor by which lung concentration was smaller than that of the corresponding compound of the invention” value [1] does the source give for CCc1cc(O)c(F)cc1-c1ccc2c(-c3nc4c([nH]3)CCN(C3CCC(C)CC3)C4)n[nH]c2c1 (stereo not shown) [Example C-4, reference compound] here?
**A.** Its value is 23.

**Q.** What about the “fold less potent than the corresponding compound of the invention in the BEAS-2B cellular assay” value [2] of the same compound?
**A.** Its value is 6 fold.

**Q.** And the “fold less potent than the corresponding compound of the invention in the enzyme assay” value (JAK1)?
**A.** The value was 2.5 fold.

**Q.** For CCc1cc(O)c(F)cc1-c1ccc2c(-c3nc4c([nH]3)CCN(C[C@@H]3CCCN3C)C4)n[nH]c2c1 [Example 11, (S)-5-ethyl-2-fluoro-4-(3-(5-((1-methylpyrrolidin-2-yl)methyl)-4,5,6,7-tetrahydro-1H-imidazo[4,5-c]pyridin-2-yl)-1H-indazol-6-yl)phenol], which Ki (JAK2) is on record?
**A.** Its Ki is under 0.1 nM.

**Q.** What about the Ki (Tyk2) of the same compound?
**A.** The Ki was 0.316 to 1 nM.

**Q.** What about the inhibition in vivo at 500 µg/mL ([1]; 0.5 mg/mL, 50 μL oral aspiration, IL-13 challenge 4 h after dosing, lungs collected 1 h later, read-out: pSTAT6 inhibition Assay 5) of the same compound?
**A.** The inhibition in vivo at 500 µg/mL was 33 to 50%.

**Q.** And the IC50 ([2]; Homo sapiens, IL-13 induced STAT6 phosphorylation, BEAS-2B cells, read-out: BEAS-2B pIC50 (converted))?
**A.** Its IC50 is under 10 nM.

**Q.** What about the Ki (JAK1; ATP at Km 25 μM, read-out: JAK 1 (pKi) (converted)) of the same compound?
**A.** Its Ki is 0.1 to 1 nM.

**Q.** And the Ki (JAK3)?
**A.** Its Ki is 0.1 to 1 nM.

**Q.** And the “Percent Inhibition of Alternaria-induced BALF Eosinophils” value [3]?
**A.** Its value is 71%.

**Q.** What about the “Lung to Plasma ratio Assay 4” value [4] of the same compound?
**A.** The value was “A (A denotes a ratio >100)”.

**Q.** Which “factor by which lung concentration was smaller than that of the corresponding compound of the invention” value [1] does the source give for CCc1cc(O)c(F)cc1-c1ccc2c(-c3nc4c([nH]3)CCN(C3CC(C)C3)C4)n[nH]c2c1 (stereo not shown) [Example C-1, 5-Ethyl-2-fluoro-4-(3-(5-(3-methylcyclobutyl)-4,5,6,7-tetrahydro-1H-imidazo[4,5-c]pyridin-2-yl)-1H-indazol-6-yl)phenol, reference compound] here?
**A.** The value was 36.

**Q.** And the “fold less potent than the corresponding compound of the invention in the BEAS-2B cellular assay” value [2]?
**A.** The value was 6 fold.

**Q.** And the “fold less potent than the corresponding compound of the invention in the enzyme assay” value (JAK1)?
**A.** The value was 2 fold.

**Q.** With CCc1cc(O)c(F)cc1-c1ccc2c(-c3nc4c([nH]3)CCN(C3CCN(C)CC3)C4)n[nH]c2c1 [crystalline hydrate, Crystalline hydrate of 5-ethyl-2-fluoro-4-(3-(5-(1-methylpiperidin-4-yl)-4,5,6,7-tetrahydro-1H-imidazo[4,5-c]pyridin-2-yl)-1H-indazol-6-yl)phenol] as the compound, how does the “weight gain (moisture sorption)” value ([5]; 5% to 90% relative humidity, about 25° C.) read?
**A.** Its value is “less than 0.12%”.

**Q.** What about the hygroscopicity ([5]; two cycles of sorption and desorption) of the same compound?
**A.** The hygroscopicity was “non-hygroscopic”.
